In patent US11559538B2, “Substituted 1,2-oxaborolan-2-ols as PDE4 inhibitors” (Pfizer Inc., priority 2018, dated 2023):
Like-named read-outs stand apart in the source and are kept apart here.

How the values were obtained:
[1] = tested on: IL-13; experiment: Cytokine assay: IL-13 release from PHA-L stimulated human PBMCs; type: cell-based; settings: read-out: IL13 IC50
Procedure: (§1) Cytokine inhibitory activity is determined by measuring the effect of test agent on the release of the cytokines IL-4, IL-13 and IFNγ from human peripheral blood mononuclear cells (PBMCs) stimulated with the T-cell mitogen phytohemagglutinin-L (PHA-L). At the time of assay, human PBMCs (Astarte Biologics) are removed from cryopreservation, thawed quickly at 37° C., diluted in assay medium (RPMI-Gibco 1640 medium, 10% heat inactivated fetal bovine serum (HIFBS), 2 mM glutamine and 10 mM HEPES pH 7.4) and then centrifuged at 250×g for 5 minutes. The resulting cell pellet is re-suspended in assay medium to a concentration of approximately 5×10^6 cells/mL and 50 μL of this cell suspension (approximately 250,000 cells) is added to each well of a 384-well cell culture microtiter plate (Perkin Elmer). Varying concentrations of test compound are then diluted in assay medium and added to the assay plate wells in a volume of 25 μL. After −10 minutes at room temperature (21° C.) the cells are stimulated by the addition of 25 μL of PHA-L (14 μg/mL; Millipore) and the assay plate is placed in an incubator at 37° C. in a humidified environment in 5% carbon dioxide. The final assay conditions are approximately 250,000 human PBMCs per well in assay medium containing 3.5 μg/mL PHA-L and the indicated final concentration of test compound (approximately 10 μM to […] by 4-fold dilution). The final concentration of DMSO in the assay is approximately 0.25%. After 48 hours, the assay plate is removed from the incubator and centrifuged at 250×g for 5 minutes. A portion of the resulting cell supernatant is then used to determine the amount of IL-4, IL-13 and IFNγ in each well. Cytokine measurements are made using human IL-4, IL-13 or IFNγ HTRF assay kits (CisBio) following the manufacturer's assay protocol. The concentrations and resulting effect values for tested compounds are plotted and the concentration of compound required for 50% effect (IC50) is determined with a four-parameter logistic dose response equation (E-WorkBook, ID Business Solutions Ltd.) and shown in Table 17.

[2] = tested on: IL-4; experiment: Cytokine assay: IL-4 release from PHA-L stimulated human PBMCs; type: cell-based; settings: read-out: IL4 IC50
Procedure: as §1

[3] = biological target: PDE4B (aa 152-484, Uniprot ID Q07343) (Homo sapiens (Human), UniProt Q07343); experiment: PDE4 SPA assay (scintillation proximity assay); type: biochemical; settings: read-out: PDE4B2 IC50
Procedure: Phosphodiesterase (PDE) activity is determined by measuring the effect of a test agent on the activity of the PDE4B enzyme in a scintillation proximity assay (SPA). At the time of assay, approximately 30 μL of PDE4B (aa 152-484, Uniprot ID Q07343) in 50 mM Tris pH 7.5, 1.3 mM MgC2, 0.004% Brij 35 is added to a 384 well white clear bottom polystyrene plate (Corning) containing 1 μL of varying concentrations of test compound. After −10 minutes at room temperature (RT; 21° C.), the assay is initiated by the addition of 20 μL of a mixture of ^3H-labeled (adenosine 3′, 5′-cyclic phosphate, ammonium salt, [2,8-^3H]; Perkin Elmer) and unlabeled cAMP. The final assay conditions are approximately 81.6 pM PDE4B in 50 mM Tris pH 7.5, 1.3 mM MgCl2, 0.004% Brij 35, 1 μM ^3H-labeled/unlabeled cAMP (1425 dpm/pmol) and the indicated final concentration of test compound (approximately 10 μM to […] by 4-fold dilution). The final concentration of DMSO in the assay is approximately 2.0%. After 30 minutes at RT, the assay is terminated by the addition of approximately 20 μL of an aqueous solution of PDE YSI SPA beads (8 mg/mL in water; Perkin Elmer). The beads are allowed to settle for at least 2 hours and the plate is then counted on a MicroBeta2 (Perkin Elmer). The concentrations and resulting effect values for the tested compound are plotted and the concentration of compound required for 50% effect (IC50) is determined with a four-parameter logistic dose response equation (E-WorkBook, ID Business Solutions Ltd.) and shown in Table 17.

[4] = tested on: IFNγ; experiment: Cytokine assay: IFNγ release from PHA-L stimulated human PBMCs; type: cell-based
Procedure: as §1

PDE4B (aa 152-484, Uniprot ID Q07343), sequence (Q07343 324-656): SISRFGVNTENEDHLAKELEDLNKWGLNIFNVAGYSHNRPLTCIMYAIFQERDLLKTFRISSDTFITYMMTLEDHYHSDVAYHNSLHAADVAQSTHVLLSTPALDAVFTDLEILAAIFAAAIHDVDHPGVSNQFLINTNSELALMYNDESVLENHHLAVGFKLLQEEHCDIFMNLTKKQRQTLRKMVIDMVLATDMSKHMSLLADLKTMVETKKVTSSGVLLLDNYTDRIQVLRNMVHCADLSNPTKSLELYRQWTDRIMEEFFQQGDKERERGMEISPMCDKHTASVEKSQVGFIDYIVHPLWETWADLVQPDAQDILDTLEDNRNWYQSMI

Compound | IC50 [1] | IC50 [2] | IC50 [3] | IC50 [4] | IC50 ([1]; Homo sapiens, PBMC) | IC50 ([2]; Homo sapiens, PBMC) | IC50 ([4]; Homo sapiens, PBMC)
COc1ccc(-c2cncc(C3COB(O)C3)c2)cc1OC (single isomer, unassigned) [Example 1, 4-(5-(3,4-dimethoxyphenyl)pyridin-3-yl)-1,2-oxaborolan-2-ol] | 284 nM | 14.3 nM | 3.16 nM | 2.98 nM |  |  | 
COc1ccc(-c2cncc(C3COB(O)C3)c2)cc1OC(C)C (single isomer, unassigned) [Example 6, 4-(5-(3-isopropoxy-4-methoxyphenyl)pyridin-3-yl)-1,2-oxaborolan-2-ol] | 283 nM | 17.6 nM | 1.05 nM | 0.72 nM |  |  | 
COc1ccc(-c2cncc(C3COB(O)C3)c2)cc1OCCO (single isomer, unassigned) [Example 8, 4-(5-(3-(2-hydroxyethoxy)-4-methoxyphenyl)pyridin-3-yl)-1,2-oxaborolan-2-ol] | 25 nM | 0.76 nM | 2.42 nM | 1.2 nM |  |  | 
COc1ccc(-c2cncc(C3COB(O)C3)c2)cc1OCCCO (single isomer, unassigned) [Example 9, 4-(5-(3-(3-hydroxypropoxy)-4-methoxyphenyl)pyridin-3-yl)-1,2-oxaborolan-2-ol] |  |  | 1.26 nM |  | 265 nM | 3.63 nM | 1.87 nM
CCOc1c(OC)ccc(-c2cncc(C3COB(O)C3)c2)c1C(F)F (single isomer, unassigned) [Example 11, 4-(5-(2-(difluoromethyl)-3-ethoxy-4-methoxyphenyl)pyridin-3-yl)-1,2-oxaborolan-2-ol] | 10000 nM | 141 nM | 33.5 nM | 68.3 nM |  |  | 
CCOc1cc(-c2cncc(C3COB(O)C3)c2)cc(F)c1OC (single isomer, unassigned) [Example 12, 4-(5-(3-ethoxy-5-fluoro-4-methoxyphenyl)pyridin-3-yl)-1,2-oxaborolan-2-ol] | 162 nM | 2.32 nM | 1.08 nM | 0.99 nM |  |  | 
CCOc1cc(-c2cncc(C3COB(O)C3)c2)c(F)cc1OC (single isomer, unassigned) [Example 14, 4-(5-(5-ethoxy-2-fluoro-4-methoxyphenyl)pyridin-3-yl)-1,2-oxaborolan-2-ol] |  |  | 1.5 nM |  | 91 nM | 3.21 nM | 1.85 nM
CCOc1cc(-c2cncc(C3COB(O)C3)c2)c(Cl)cc1OC (single isomer, unassigned) [Example 15, 4-(5-(2-chloro-5-ethoxy-4-methoxyphenyl)pyridin-3-yl)-1,2-oxaborolan-2-ol] |  |  | 1.57 nM |  | 136 nM | 1.41 nM | 0.71 nM
CCOc1cc(-c2cc([C@@H]3COB(O)C3)cnc2C)ccc1OC (single isomer, unassigned) [Example 19] |  |  | 2.96 nM |  | 1480 nM | 2.56 nM | 1.68 nM
CCOc1cc(-c2cc([C@H]3COB(O)C3)cnc2C)ccc1OC (single isomer, unassigned) [Example 20] |  |  | 26.9 nM |  | 8790 nM | 86.8 nM | 103 nM
CCCOc1cc(-c2nc(C)cc(C3COB(O)C3)n2)ccc1OC (single isomer, unassigned) [Example 22, 4-(2-(4-methoxy-3-propoxyphenyl)-6-methylpyrimidin-4-yl)-1,2-oxaborolan-2-ol] |  |  | 7.89 nM |  | 257 nM | 1.75 nM | 1.43 nM
COc1ccc(-c2cccc(C3COB(O)C3)n2)cc1OC1CCCC1 (single isomer, unassigned) [Example 66, 4-(6-(3-(cyclopentyloxy)-4-methoxyphenyl)pyridin-2-yl)-1,2-oxaborolan-2-ol] | 327 nM |  | 2.15 nM | 0.71 nM |  | 86.5 nM | 

Now those with a lower IC50 [3], led by results:

IC50 [1] | IC50 [2] | IC50 [3] | IC50 [4] | IC50 ([1]; Homo sapiens, PBMC) | IC50 ([2]; Homo sapiens, PBMC) | IC50 ([4]; Homo sapiens, PBMC) | Compound
289 nM | 7.76 nM | 0.97 nM | 0.71 nM |  |  |  | COc1ccc(-c2cncc(C3COB(O)C3)c2)cc1OC1CC1 (single isomer, unassigned) [Example 7, 4-(5-(3-cyclopropoxy-4-methoxyphenyl)pyridin-3-yl)-1,2-oxaborolan-2-ol]
166 nM | 5.98 nM | 0.97 nM | 4.89 nM |  |  |  | CCOc1cc(-c2cncc(C3COB(O)C3)c2)cc(Cl)c1OC (single isomer, unassigned) [Example 13, 4-(5-(3-chloro-5-ethoxy-4-methoxyphenyl)pyridin-3-yl)-1,2-oxaborolan-2-ol]
126 nM | 0.54 nM | 0.05 nM | 0.82 nM |  |  |  | CCCOc1nc(-c2cncc(C3COB(O)C3)c2)c(F)cc1OC (single isomer, unassigned) [Example 16, 4-(3-fluoro-5-methoxy-6-propoxy-[2,3′-bipyridin]-5′-yl)-1,2-oxaborolan-2-ol]
 |  | 0.28 nM |  | 138 nM | 0.65 nM | 0.47 nM | CCCOc1cc(-c2cncc(C3COB(O)C3)c2)ccc1OC(F)F (single isomer, unassigned) [Example 17, 4-(5-(4-(difluoromethoxy)-3-propoxyphenyl)pyridin-3-yl)-1,2-oxaborolan-2-ol]
 |  | 0.74 nM |  | 218 nM | 1.91 nM | 2.23 nM | CCCOc1cc(-c2cncc(C3COB(O)C3)c2)cnc1OC (single isomer, unassigned) [Example 18, 4-(6′-methoxy-5′-propoxy-[3,3′-bipyridin]-5-yl)-1,2-oxaborolan-2-ol]
159 nM | 0.84 nM | 0.64 nM | 1.35 nM |  |  |  | CCOc1cc(-c2cncc(C3COB(O)C3)c2C)ccc1OC (single isomer, unassigned) [Example 21, 4-(5-(3-ethoxy-4-methoxyphenyl)-4-methylpyridin-3-yl)-1,2-oxaborolan-2-ol]
 |  | 0.97 nM |  | 132 nM | 0.61 nM | 0.85 nM | CCCOc1cc(-c2nc(C3COB(O)C3)cc(C(F)(F)F)n2)ccc1OC (single isomer, unassigned) [Example 23, 4-(2-(4-methoxy-3-propoxyphenyl)-6-(trifluoromethyl)pyrimidin-4-yl)-1,2-oxaborolan-2-ol]
 |  | 0.99 nM |  | 163 nM | 2.24 nM | 1.33 nM | CCOc1cc(-c2cncc(C3COB(O)C3)n2)ccc1OC (single isomer, unassigned) [Example 24, 4-(6-(3-ethoxy-4-methoxyphenyl)pyrazin-2-yl)-1,2-oxaborolan-2-ol]
499 nM | 0.73 nM | 0.53 nM |  |  |  | 2.12 nM | CCCOc1nc(-c2cncc(C3COB(O)C3)c2)ccc1OC (single isomer, unassigned) [Example 61, 4-(5-methoxy-6-propoxy-[2,3′-bipyridin]-5′-yl)-1,2-oxaborolan-2-ol]
2570 nM | 2.66 nM | 0.28 nM | 1.44 nM |  |  |  | CCCOc1nc(-c2cncc(C3COB(O)C3)c2)ccc1OC (single isomer, unassigned) [Example 62, 4-(5-methoxy-6-propoxy-[2,3′-bipyridin]-5′-yl)-1,2-oxaborolan-2-ol]
